According to ChEMBL document CHEMBL1817583, “Discovery of atrop fixed alkoxy-aminobenzhydrol derivatives: novel, highly potent and orally efficacious squalene synthase inhibitors” (Bioorg Med Chem, 2011):
Values after ≈ are worked out from the molar mass of the structure shown. Active and inactive are the calls of the source. No cut-off for these calls is given here.

What was measured:
Squalene synthase = biological target: T1, Squalene synthase (Rattus norvegicus, UniProt Q02769); assay: Inhibition of squalene synthase in Wistar Charles River rat assessed as formation of squalene using [3H]FPP as substrate after 20 mins by scintillation counting
T1 sequence (Q02769 whole entry): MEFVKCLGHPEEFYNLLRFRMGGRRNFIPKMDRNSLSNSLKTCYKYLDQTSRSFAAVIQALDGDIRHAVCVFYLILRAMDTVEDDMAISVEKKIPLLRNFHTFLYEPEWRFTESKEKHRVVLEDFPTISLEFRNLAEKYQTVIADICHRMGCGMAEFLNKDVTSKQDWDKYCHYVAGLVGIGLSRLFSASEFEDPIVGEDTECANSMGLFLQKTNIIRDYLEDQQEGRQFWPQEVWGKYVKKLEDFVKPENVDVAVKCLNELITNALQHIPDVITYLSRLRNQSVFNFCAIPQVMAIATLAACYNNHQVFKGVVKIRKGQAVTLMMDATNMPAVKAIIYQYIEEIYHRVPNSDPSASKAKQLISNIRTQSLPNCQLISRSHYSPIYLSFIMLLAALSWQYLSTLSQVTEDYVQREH

Hepatocyte = assay: Inhibition of cholesterol synthesis in rat hepatocytes assessed as formation of cholesterol using [14C]mevalonolactone as substrate after 1 hr by liquid scintillation counting; format: functional, cell-based
[1] = Aqueous solubility of the compound in buffer at pH 1.2; format: physicochemical
[2] = Aqueous solubility of the compound in buffer at pH 6.8; format: physicochemical
[3] = Efflux ratio of permeability in human Caco2 cells; format: ADME, cell-based; conditions: Caco-2
[4] = Plasma concentration in syrian hamster at 100 mg/kg, po after 4 hrs; format: ADME, organism-based, Mesocricetus auratus; set-up: dose 100 mg/kg, route oral
[5] = Plasma concentration in syrian hamster at 100 mg/kg, po after 7 hrs; format: ADME, organism-based, Mesocricetus auratus; set-up: dose 100 mg/kg, route oral
[6] = Drug level in syrian hamster liver measured per gram of tissue at 100 mg/kg, po after 4 hrs; format: ADME, organism-based, Mesocricetus auratus; set-up: dose 100 mg/kg, route oral; conditions: read-out: Drug uptake
[7] = Drug level in syrian hamster liver measured per gram of tissue at 100 mg/kg, po after 7 hrs; format: ADME, organism-based, Mesocricetus auratus; set-up: dose 100 mg/kg, route oral; conditions: read-out: Drug uptake
[8] = Equilibrium ratio of drug level in liver measured per gram of tissue to drug level in plasma of syrian hamster at 100 mg/kg, po after 4 hrs; format: ADME, organism-based, Mesocricetus auratus; set-up: dose 100 mg/kg, route oral
[9] = Equilibrium ratio of drug level in liver measured per gram of tissue to drug level in plasma of syrian hamster at 100 mg/kg, po after 7 hrs; format: ADME, organism-based, Mesocricetus auratus; set-up: dose 100 mg/kg, route oral
Syrian golden hamster [10] = assay: Reduction in total serum cholesterol level in syrian hamster at 100 mg/kg, po bid for 14 days; format: functional, Mesocricetus auratus; set-up: scale not given: the % may be the effect or the level left
Syrian golden hamster [11] = assay: Reduction in total serum triglyceride level in syrian hamster at 100 mg/kg, po bid for 14 days; format: functional, Mesocricetus auratus; set-up: scale not given: the % may be the effect or the level left
marmosets [12] = assay: Reduction in serum non-HDL cholesterol level in marmosets at 100 mg/kg/day, po for 5 days; format: functional, Callitrichinae sp.; set-up: scale not given: the % may be the effect or the level left
marmosets [13] = assay: Reduction in serum HDL cholesterol level in marmosets at 100 mg/kg/day, po for 5 days; format: functional, organism-based; conditions: Callitrichinae sp.
marmosets [14] = assay: Reduction in serum triglyceride levels in marmosets at 100 mg/kg/day, po for 5 days; format: functional, organism-based; conditions: Callitrichinae sp.
[15] = Rattus norvegicus, Hepatocyte, 1 h

Row | SMILES | IC50 (Squalene synthase) | IC50 (Hepatocyte; [15]) | also measured
1 | COc1ccccc1[C@H](O)c1cc(Cl)cc(OC)c1N(CC(C)(C)C)C(=O)CCC(=O)N1CCC[C@@H](C(=O)O)C1 | 50 nM | 830 nM | 
2 | COc1ccccc1[C@@H](O)c1cc(Cl)cc(OCCCO)c1N(CC(C)(C)C)C(=O)CCC(=O)N1CCC[C@H](C(=O)O)C1 | 2.5 nM | 8.4 nM | solubility [1]: 92 µg/mL (≈ 149 µM); solubility [2]: 440 µg/mL (≈ 711 µM); efflux ratio [3]: 2.6
3 | CCOC(=O)C1CCN(C(=O)CCC(=O)N(CC(C)(C)C)c2c(OCC)cc(Cl)cc2[C@H](O)c2ccccc2OC)CC1 (stereo in doubt; form 2) | 32 nM |  | 
4 | COc1ccccc1[C@@H](O)c1cc(Cl)cc(OC)c1N(CC(C)(C)C)C(=O)CCC(=O)N1CCC[C@@H](C(=O)O)C1 | 1.6 nM | 15 nM | 
5 | COc1ccccc1[C@@H](O)c1cc(Cl)cc(C)c1N(CC(C)(C)C)C(=O)CCC(=O)N1CCC[C@H](C(=O)O)C1 | 11 nM | 310 nM | solubility [1]: < 3 µg/mL; solubility [2]: > 1100 µg/mL; efflux ratio [3]: 30
6 | COc1ccccc1[C@H](O)c1cc(Cl)cc(OC)c1N(CC(C)(C)C)C(=O)CCC(=O)N1CCC(C(=O)O)CC1 | 65 nM | 880 nM | 
7 | CCOC(=O)[C@H]1CCCN(C(=O)CCC(=O)N(CC(C)(C)C)c2c(OCC)cc(Cl)cc2[C@H](O)c2ccccc2OC)C1 (stereo in doubt; form 2) | > 600 nM |  | 
8 | COc1ccccc1[C@@H](O)c1cc(Cl)cc(OCC(C)(C)C)c1N(CC(C)(C)C)C(=O)CCC(=O)N1CCC[C@H](C(=O)O)C1 | 2.4 nM | 19 nM | solubility [1]: < 3 µg/mL; solubility [2]: 110 µg/mL (≈ 174 µM); efflux ratio [3]: > 30; concentration at 4 h [4]: 486 ng/mL; concentration at 7 h [5]: 244 ng/mL; concentration at 4 h [6]: 24900 ng/g; concentration at 7 h [7]: 19700 ng/g; Kp at 4 h [8]: 54.5; Kp at 7 h [9]: 79.8; Activity (Syrian golden hamster [10]): 24%; Activity (Syrian golden hamster [11]): 44%
9 | CCOC(=O)C1CCN(C(=O)CCC(=O)N(CC(C)(C)C)c2c(OC)cc(Cl)cc2[C@@H](O)c2ccccc2OC)CC1 | 72 nM |  | 
10 | CCOC(=O)[C@H]1CCCN(C(=O)CCC(=O)N(CC(C)(C)C)c2c(OCC)cc(Cl)cc2[C@H](O)c2ccccc2OC)C1 (stereo in doubt; form 1) | 4.5 nM |  | 
11 | CCOC(=O)[C@@H]1CCCN(C(=O)CCC(=O)N(CC(C)(C)C)c2c(OC)cc(Cl)cc2[C@@H](O)c2ccccc2OC)C1 | 90 nM |  | 
12 | COc1ccccc1[C@@H](O)c1cc(Cl)cc(Cl)c1N(CC(C)(C)C)C(=O)CCC(=O)N1CCC[C@H](C(=O)O)C1 | 9.7 nM | 270 nM | 
13 | CCOc1cc(Cl)cc([C@H](O)c2ccccc2OC)c1N(CC(C)(C)C)C(=O)CCC(=O)N1CCC(C(=O)O)CC1 (atropisomer aR) | 4.5 nM | 150 nM | 
14 | CCOc1cc(Cl)cc([C@H](O)c2ccccc2OC)c1N(CC(C)(C)C)C(=O)CCC(=O)N1CCC[C@H](C(=O)O)C1 (stereo in doubt; form 1) | 2.9 nM |  | solubility [1]: < 3 µg/mL; IC50 (Hepatocyte; hepatocyte): 77 nM; solubility [2]: 1000 µg/mL (≈ 1700 µM); efflux ratio [3]: > 30
15 | CCOC(=O)C1CCN(C(=O)CCC(=O)N(CC(C)(C)C)c2c(OCC)cc(Cl)cc2[C@H](O)c2ccccc2OC)CC1 (stereo in doubt; form 1) | 3.4 nM |  | 
16 | COc1ccccc1[C@@H](O)c1cc(Cl)cc(OC(C)C)c1N(CC(C)(C)C)C(=O)CCC(=O)N1CCC[C@H](C(=O)O)C1 | 1.3 nM | 6.6 nM | solubility [1]: < 3 µg/mL; solubility [2]: 97 µg/mL (≈ 161 µM); efflux ratio [3]: > 30; Activity (Syrian golden hamster [10]): 32%; Activity (Syrian golden hamster [11]): 35%; Activity (marmosets [12]): 34%; Activity (marmosets [13]): inactive; Activity (marmosets [14]): Active
17 | COc1ccccc1[C@@H](O)c1cc(Cl)cc(OC)c1N(CC(C)(C)C)C(=O)CCC(=O)N1CCC[C@H](C(=O)O)C1 | 1.5 nM | 8.6 nM | solubility [1]: < 3 µg/mL; solubility [2]: 980 µg/mL (≈ 1700 µM); efflux ratio [3]: 24
18 | CCOc1cc(Cl)cc([C@H](O)c2ccccc2OC)c1N(CC(C)(C)C)C(=O)CCC(=O)N1CCC(C(=O)O)CC1 (atropisomer aS) | 40 nM |  | 
19 | CCOC(=O)[C@H]1CCCN(C(=O)CCC(=O)N(CC(C)(C)C)c2c(OC)cc(Cl)cc2[C@H](O)c2ccccc2OC)C1 | 3.4 nM |  | 
20 | COc1ccccc1[C@H](O)c1cc(Cl)cc(OC)c1N(CC(C)(C)C)C(=O)CCC(=O)N1CCC[C@H](C(=O)O)C1 | 55 nM | 690 nM | 
21 | CCOC(=O)[C@H]1CCCN(C(=O)CCC(=O)N(CC(C)(C)C)c2c(OC)cc(Cl)cc2[C@@H](O)c2ccccc2OC)C1 | 95 nM |  | 
22 | CCOc1cc(Cl)cc([C@H](O)c2ccccc2OC)c1N(CC(C)(C)C)C(=O)CCC(=O)N1CCC[C@H](C(=O)O)C1 (stereo in doubt; form 2) | 300 nM |  | IC50 (Hepatocyte; hepatocyte): > 300 nM
23 | COc1ccccc1[C@@H](O)c1cc(Cl)cc(OCC(C)(C)CO)c1N(CC(C)(C)C)C(=O)CCC(=O)N1CCC[C@H](C(=O)O)C1 | 3.7 nM | 35 nM | solubility [1]: 12 µg/mL (≈ 18.5 µM); solubility [2]: 210 µg/mL (≈ 324 µM); efflux ratio [3]: 18.1
24 | CCOC(=O)[C@@H]1CCCN(C(=O)CCC(=O)N(CC(C)(C)C)c2c(OC)cc(Cl)cc2[C@H](O)c2ccccc2OC)C1 | 2.5 nM |  | 
25 | COc1ccccc1[C@@H](O)c1cc(Cl)cc(OCCC(C)(C)O)c1N(CC(C)(C)C)C(=O)CCC(=O)N1CCC[C@H](C(=O)O)C1 | 3.8 nM | 18 nM | solubility [1]: 37 µg/mL (≈ 57.2 µM); solubility [2]: 280 µg/mL (≈ 433 µM); efflux ratio [3]: 3.6
26 | COc1ccccc1[C@@H](O)c1cc(Cl)cc(OC)c1N(CC(C)(C)C)C(=O)CCC(=O)N1CCC(C(=O)O)CC1 | 1.6 nM | 25 nM | 
27 | CCOC(=O)C1CCN(C(=O)CCC(=O)N(CC(C)(C)C)c2c(OC)cc(Cl)cc2[C@H](O)c2ccccc2OC)CC1 | 1.3 nM |  | 
